Source: US10717716B2, “1,3,4-oxadiazole derivative compounds as histone deacetylase 6 inhibitor, and the pharmaceutical composition comprising the same” (Chong Kun Dang Pharmaceutical Corp., priority 2015, dated 2020)
Like-named read-outs stand apart in the source and are kept apart here.

Target: T1, human recombinant HDAC6 (Homo sapiens, UniProt Q9UBN7)
T1 construct: purchased Calbiochem 382180
T1 sequence (Q9UBN7 1-1215): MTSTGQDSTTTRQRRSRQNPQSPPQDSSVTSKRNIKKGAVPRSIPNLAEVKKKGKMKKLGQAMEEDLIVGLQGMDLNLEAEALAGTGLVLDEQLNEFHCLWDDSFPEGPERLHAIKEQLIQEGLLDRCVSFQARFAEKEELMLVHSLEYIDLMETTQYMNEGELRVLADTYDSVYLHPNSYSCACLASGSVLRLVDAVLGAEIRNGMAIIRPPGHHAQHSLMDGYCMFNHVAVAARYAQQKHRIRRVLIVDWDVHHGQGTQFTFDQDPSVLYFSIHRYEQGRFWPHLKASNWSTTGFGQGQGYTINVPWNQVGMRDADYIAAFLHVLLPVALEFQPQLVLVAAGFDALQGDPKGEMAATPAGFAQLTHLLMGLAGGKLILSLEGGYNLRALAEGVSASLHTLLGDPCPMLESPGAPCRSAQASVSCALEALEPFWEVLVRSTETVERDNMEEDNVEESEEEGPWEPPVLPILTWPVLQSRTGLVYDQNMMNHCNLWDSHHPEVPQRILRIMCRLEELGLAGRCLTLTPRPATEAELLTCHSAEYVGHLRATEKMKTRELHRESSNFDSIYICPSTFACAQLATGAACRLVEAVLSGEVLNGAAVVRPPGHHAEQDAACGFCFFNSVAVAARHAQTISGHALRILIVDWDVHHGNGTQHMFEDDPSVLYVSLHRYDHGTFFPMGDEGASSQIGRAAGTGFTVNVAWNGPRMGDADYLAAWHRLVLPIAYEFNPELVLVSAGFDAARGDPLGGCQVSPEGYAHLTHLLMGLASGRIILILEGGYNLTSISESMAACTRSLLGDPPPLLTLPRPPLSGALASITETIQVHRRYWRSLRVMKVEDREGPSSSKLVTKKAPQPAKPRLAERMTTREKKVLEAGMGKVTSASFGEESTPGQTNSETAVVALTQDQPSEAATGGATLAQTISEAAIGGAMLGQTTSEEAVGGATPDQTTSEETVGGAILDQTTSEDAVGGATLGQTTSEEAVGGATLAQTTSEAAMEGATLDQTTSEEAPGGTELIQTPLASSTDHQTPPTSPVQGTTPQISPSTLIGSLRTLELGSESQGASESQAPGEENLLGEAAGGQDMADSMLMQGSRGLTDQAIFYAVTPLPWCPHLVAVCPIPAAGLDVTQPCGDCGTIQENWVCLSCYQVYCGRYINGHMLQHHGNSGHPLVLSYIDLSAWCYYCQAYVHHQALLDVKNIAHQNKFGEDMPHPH
Assay: HDAC6 enzyme activity inhibition assay (HDAC Fluorimetric Drug Discovery Kit)
Format: biochemical
Conditions: for HDAC6 selectivity (fold): HDAC6 over HDAC1; for IC50: human recombinant HDAC6, same protocol as HDAC1
How it was run: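 Human recombinant HDAC1 or HDAC6 (0.3 μg) reacted with 10 μM Fluor de Lys-SIRT1 substrate and 5-fold compound dilutions for 60 min at 30 °C. Developer II added for 30 min, fluorescence read at Ex 360/Em 460; IC50 calculated from the readings.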

| SMILES | HDAC6 selectivity (fold) | IC50 (read-out: HDAC6) [nM] | IC50 (HDAC6 (nM)) [nM] |
| --- | --- | --- | --- |
| O=C(N1CCS(=O)(=O)CC1)N(Cc1ccc(-c2nnc(C(F)F)o2)cc1F)c1ccc2c(c1)CCO2 [Compound 21544, N-(4-(5-(difluoromethyl)-1,3,4-oxadiazol-2-yl)-2-fluorobenzyl)-N-(2,3-dihydrobenzofuran-5-yl)thiomorpholine-4-carboxamide 1,1-dioxide] | 294 | 34 |  |
| Cn1ncc2ccc(N(Cc3ccc(-c4nnc(C(F)F)o4)cc3F)C(=O)N3CCS(=O)(=O)CC3)cc21 [Compound 21546, N-(4-(5-(difluoromethyl)-1,3,4-oxadiazol-2-yl)-2-fluorobenzyl)-N-(1-methyl-1H-indazol-6-yl)thiomorpholine-4-carboxamide 1,1-dioxide] | 476 | 21 |  |
| CCN(CC)c1ccc(N(Cc2ccc(-c3nnc(C(F)(F)F)o3)cc2F)C(=O)N2CCS(=O)(=O)CC2)cc1 [Compound 21552, N-(4-(diethylamino)phenyl)-N-(2-fluoro-4-(5-(trifluoromethyl)-1,3,4-oxadiazol-2-yl)benzyl)thiomorpholine-4-carboxamide 1,1-dioxide] | 7 | 1520 |  |
| O=C(N1CCOCC1)N(CCc1ccccc1)Cc1ccc(-c2nnc(C(F)F)o2)cc1F [Compound 21555, N-(4-(5-(difluoromethyl)-1,3,4-oxadiazol-2-yl)-2-fluorobenzyl)-N-phenethylmorpholine-4-carboxamide] | 26 | 386 |  |
| CN1CCN(C(=O)N(Cc2ccc(-c3nnc(C(F)(F)F)o3)cc2F)c2ccc(F)c(Cl)c2)CC1 [Compound 21564, N-(3-chloro-4-fluorophenyl)-N-(2-fluoro-4-(5-(trifluoromethyl)-1,3,4-oxadiazol-2-yl)benzyl)-4-methylpiperazine-1-carboxamide] | 88 | 113 |  |
| O=C(N1CC2(COC2)C1)N(Cc1ccc(-c2nnc(C(F)F)o2)cn1)c1ccccc1 [Compound 21566, N-((5-(5-(difluoromethyl)-1,3,4-oxadiazol-2-yl)pyridin-2-yl)methyl)-N-phenyl-2-oxa-6-azaspiro[3.3]heptane-6-carboxamide] | 526 | 19 |  |
| CC(C)(C)OC(=O)N(Cc1ccc(-c2nnc(C(F)F)o2)cc1)c1ccccc1 [Compound 21568, Tert-butyl (4-(5-(difluoromethyl)-1,3,4-oxadiazol-2-yl)benzyl)(phenyl)carbamate] | 42 | 237 |  |
| O=C(Oc1ccccc1)N(Cc1ccc(-c2nnc(C(F)F)o2)cc1)c1ccccc1 [Compound 21569, Phenyl (4-(5-(difluoromethyl)-1,3,4-oxadiazol-2-yl)benzyl)(phenyl)carbamate] | 59 |  | 170 |
| CC(C)COC(=O)N(Cc1ccc(-c2nnc(C(F)F)o2)cc1)c1ccccc1 [Compound 21570, Isobutyl (4-(5-(difluoromethyl)-1,3,4-oxadiazol-2-yl)benzyl)(phenyl)carbamate] | 32 | 309 |  |
| CCCCN(Cc1ccc(-c2nnc(C(F)F)o2)cc1)C(=O)Nc1ccccc1 [Compound 21576, 1-Butyl-1-(4-(5-(difluoromethyl)-1,3,4-oxadiazol-2-yl)benzyl)-3-phenylurea] | 24 | 409 |  |
| CN(C)CCNC(=O)N(Cc1ccc(-c2nnc(C(F)F)o2)cc1)c1ccccc1 [Compound 21577, 1-(4-(5-(Difluoromethyl)-1,3,4-oxadiazol-2-yl)benzyl)-3-(2-(dimethylamino)ethyl)-1-phenylurea] | 152 | 66 |  |
| CCN(CCN(C)C)C(=O)N(Cc1ccc(-c2nnc(C(F)F)o2)cc1)c1ccccc1 [Compound 21578, 1-(4-(5-(Difluoromethyl)-1,3,4-oxadiazol-2-yl)benzyl)-3-(2-(dimethylamino)ethyl)-3-ethyl-1-phenylurea] | 233 | 43 |  |
| CN(C)[C@H]1CCN(C(=O)N(Cc2ccc(-c3nnc(C(F)F)o3)cc2F)c2ccc(F)c(Cl)c2)C1 [Compound 21583, (S)—N-(3-chloro-4-fluorophenyl)-N-(4-(5-(difluoromethyl)-1,3,4-oxadiazol-2-yl)-2-fluorobenzyl)-3-(dimethylamino)pyrrolidine-1-carboxamide] | 833 | 12 |  |
| CN(CCO)C(=O)N(Cc1ccc(-c2nnc(C(F)F)o2)cc1)c1ccccc1 [Compound 21585, 1-(4-(5-(Difluoromethyl)-1,3,4-oxadiazol-2-yl)benzyl)-3-(2-hydroxyethyl)-3-methyl-1-phenylurea] | 370 | 27 |  |
| O=C(N1CC2(COC2)C1)N(Cc1ccc(-c2nnc(C(F)F)o2)cc1F)c1ccc(F)c(Cl)c1 [Compound 21586, N-(3-chloro-4-fluorophenyl)-N-(4-(5-(difluoromethyl)-1,3,4-oxadiazol-2-yl)-2-fluorobenzyl)-2-oxa-6-azaspiro[3.3]heptane-6-carboxamide] | 476 | 21 |  |
| O=C(N1CCS(=O)(=O)CC1)N(Cc1ccc(-c2nnc(C(F)F)o2)cn1)c1ccc(F)c(Cl)c1 [Compound 21587, N-(3-chloro-4-fluorophenyl)-N-((5-(5-(difluoromethyl)-1,3,4-oxadiazol-2-yl)pyridin-2-yl)methyl)thiomorpholine-4-carboxamide 1,1-dioxide] | 909 | 11 |  |

The remaining compounds from weak to strong by IC50 (read-out: HDAC6), led by results:

| HDAC6 selectivity (fold) | IC50 (read-out: HDAC6) [nM] | SMILES | IC50 (HDAC6 (nM)) [nM] |
| --- | --- | --- | --- |
| 14 | 697 | CCN(CC)c1ccc(N(Cc2ccc(-c3nnc(C(F)F)o3)cc2F)C(=O)N2CCS(=O)(=O)CC2)cc1 [Compound 21553] |  |
| 36 | 281 | COc1ccccc1CCN(Cc1ccc(-c2nnc(C(F)F)o2)cc1F)C(=O)N1CCN(C)CC1 [Compound 21556, N-(4-(5-(difluoromethyl)-1,3,4-oxadiazol-2-yl)-2-fluorobenzyl)-N-(2-methoxyphenethyl)-4-methylpiperazine-1-carboxamide] |  |
| 41 | 244 | COc1ccccc1CCN(Cc1ccc(-c2nnc(C(F)F)o2)cc1F)C(=O)N1CCOCC1 [Compound 21557, N-(4-(5-(difluoromethyl)-1,3,4-oxadiazol-2-yl)-2-fluorobenzyl)-N-(2-methoxyphenethyl) morpholine-4-carboxamide] |  |
| 65 | 155 | CN1CCN(C(=O)N(CCc2ccccc2)Cc2ccc(-c3nnc(C(F)F)o3)cc2F)CC1 [Compound 21554, N-(4-(5-(difluoromethyl)-1,3,4-oxadiazol-2-yl)-2-fluorobenzyl)-4-methyl-N-phenethylpiperazine-1-carboxamide] |  |
| 164 | 61 | CN1CCN(C(=O)N(Cc2ccc(-c3nnc(C(F)F)o3)cc2F)c2ccc(-c3ccccc3)cc2)CC1 [Compound 21542, N-([1,1′-biphenyl]-4-yl)-N-(4-(5-(difluoromethyl)-1,3,4-oxadiazol-2-yl)-2-fluorobenzyl)-4-methylpiperazine-1-carboxamide] |  |
| 370 | 27 | CN(C)[C@@H]1CCN(C(=O)N(Cc2ccc(-c3nnc(C(F)F)o3)cc2F)c2ccc(F)c(Cl)c2)C1 [Compound 21584, (R)—N-(3-chloro-4-fluorophenyl)-N-(4-(5-(difluoromethyl)-1,3,4-oxadiazol-2-yl)-2-fluorobenzyl)-3-(dimethylamino)pyrrolidine-1-carboxamide] |  |
| 625 | 16 | CN1CCN(C(=O)N(Cc2ccc(-c3nnc(C(F)F)o3)cc2F)c2ccc(F)c(Cl)c2)CC1 [Compound 21565, N-(3-chloro-4-fluorophenyl)-N-(4-(5-(difluoromethyl)-1,3,4-oxadiazol-2-yl)-2-fluorobenzyl)-4-methylpiperazine-1-carboxamide] |  |
